According to patent US20200206233A1 (INTEGRAL BIOSCIENCES PRIVATE LIMITED, priority 2018, published 2020):

Experiments:
Format in all cases: biochemical
IDH1 mutant (R132H) = molecular target: T1, IDH1 mutant (R132H) (Homo sapiens, UniProt O75874, R132H); assay: Mutant IDH1-R132H Fluorescence Assay (Resazurin based); conditions: 10 nM IDH1 R132H, 4 mM α-ketoglutarate, NADPH, 1.5 h at room temperature
T1 construct: purchased BPS Bioscience 71099-2
How it was run: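 Recombinant IDH1 R132H (10 nM) was run with α-ketoglutarate (4 mM) and NADPH ([…]) for 1.5 h at room temperature in Tris pH buffer with MgCl2, BSA and mercaptoethanol. Remaining NADPH was detected via diaphorase/resazurin fluorescence (ex 540/em 590 nm). IC50 came from a 4-parameter logistic fit.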

IDH1-WT = molecular target: T2, IDH1-WT (Homo sapiens, UniProt O75874); assay: IDH1-WT Fluorescence Assay (Resazurin based); conditions: 1 nM IDH1-WT, 200 μM isocitrate, 15 μM NADP+, 30 min at room temperature
T2 construct: purchased BPS Bioscience 71075-2
T2 sequence (O75874 whole entry): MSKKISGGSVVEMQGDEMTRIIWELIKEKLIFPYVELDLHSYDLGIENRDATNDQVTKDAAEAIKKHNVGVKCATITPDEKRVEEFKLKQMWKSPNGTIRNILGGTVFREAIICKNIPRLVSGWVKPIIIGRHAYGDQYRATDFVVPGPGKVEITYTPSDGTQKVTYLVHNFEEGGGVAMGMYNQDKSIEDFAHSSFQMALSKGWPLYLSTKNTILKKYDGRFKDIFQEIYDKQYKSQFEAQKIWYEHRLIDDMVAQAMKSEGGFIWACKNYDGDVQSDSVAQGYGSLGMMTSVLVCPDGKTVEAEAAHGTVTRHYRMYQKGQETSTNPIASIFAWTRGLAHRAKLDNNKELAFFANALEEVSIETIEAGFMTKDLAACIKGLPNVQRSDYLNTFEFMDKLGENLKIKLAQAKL
Protocol: IC50 values of compounds against IDH1-WT was determined by Resazurin based Fluorescence assay. Assays were performed in Buffer (50 mM Tris HCl, 10 mM MgCl2, 0.03% BSA, 2 mM ß-mercaptoethanol) where total reaction volume was 25 μL in low-volume 96-well plates. Serially diluted compounds (3-fold) in DMSO (0.5% in final reaction) were incubated with cocktail of isocitrate (200 μM; Cat # I1252-1G, Sigma), NADP^+ (15 μM; Cat # N0505-500MG, Sigma) and buffer for 5 min, following addition of IDH1-WT enzyme (1 nM; Cat #71075-2, BPS Bioscience) and incubated in dark at room temperature for 30 min. After that, 12.5 μL detection solution containing Resazurin (60 μM; Cat #62758-13-8, Sigma) and Diaphorase (40 μg/ml; Cat # D2197-300UN, Sigma) in buffer was added and incubated for 15 min. Readings were taken using a Synergy Neo Plate reader (BioTek, Winooski) at single excitation of 540 nm and emission at 590 nm respectively.
The % (percent) activity of test samples was calculated as (Sample−Min)×100/(Max−Min). [Max: DMSO control, complete reaction with enzyme with DMSO and Min: No enzyme with DMSO]. Percent inhibition (100−% activity) was fitted to the “four-parameter logistic model” in XLfit for determination of IC50 values.

IDH2 mutant (R140Q) = molecular target: T3, IDH2 mutant (R140Q) (Homo sapiens, UniProt P48735, R140Q); assay: Mutant IDH2-R140Q Fluorescence Assay (Resazurin based); conditions: 5 nM IDH2 R140Q, 4 hr pre-incubation, 1 mM α-ketoglutarate, 5 μM NADPH, 2 h
T3 construct: purchased BPS Bioscience 71100-2
T3 sequence (P48735 40-452 R140Q): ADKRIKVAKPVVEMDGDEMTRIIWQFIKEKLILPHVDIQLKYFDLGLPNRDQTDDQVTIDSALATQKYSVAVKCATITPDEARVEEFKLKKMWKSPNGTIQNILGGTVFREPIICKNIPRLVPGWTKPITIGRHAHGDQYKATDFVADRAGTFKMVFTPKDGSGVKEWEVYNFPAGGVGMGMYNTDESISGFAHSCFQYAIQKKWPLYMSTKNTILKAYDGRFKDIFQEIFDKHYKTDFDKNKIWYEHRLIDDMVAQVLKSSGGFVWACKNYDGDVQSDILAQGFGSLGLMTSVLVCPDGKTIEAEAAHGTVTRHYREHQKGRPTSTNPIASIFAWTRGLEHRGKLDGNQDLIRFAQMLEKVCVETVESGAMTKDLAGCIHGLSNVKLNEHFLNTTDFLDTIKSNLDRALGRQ
Protocol: IC50 values of compounds against IDH2 mutant (R140Q) were determined by Resazurin based Fluorescence assay. Assay was performed in Buffer (25 mM Tris HCl, 150 mM NaCl, 10 mM MgCl2, 0.03% BSA, 2 mM 1-mercaptoethanol) where total reaction volume was 12.5 μL in low-volume 384-well plates (Cat #4511, Corning). Serially diluted compounds (3-fold) were pre-incubated with IDH2 R140Q mutant enzyme (5 nM; Cat #71100-2, BPS Bioscience) for 4 hr at RT (25° C.) followed by addition of cocktail of α-ketoglutarate (1 mM; Cat #75892-25G, Sigma), and NADPH (5 μM; Cat # N1630-100MG, Sigma) with buffer in dark at room temperature for 2 h. After 2 h incubation, 6.25 μL detection solution containing Resazurin (30 μM; (Cat #62758-13-8, Sigma) and Diaphorase (40 ug/ml; Cat # D2197-300UN, Sigma) in buffer was added and incubated for 15 min. Readings were taken in a Synergy Neo Plate reader (BioTek, Winooski) at single excitation of 540 nm and emission at 590 nm respectively.
The % activity of test samples was calculated as (Sample−Min)×100/(Max−Min). [Max: DMSO control, complete reaction with enzyme with DMSO and Min: No enzyme with DMSO]. Percent inhibition (100−% activity) was fitted to the “four-parameter logistic model” in XLfit for determination of IC50 values.

T1 sequence (O75874 whole entry R132H): as the sequence (O75874 whole entry) above, with R132H counted along it

SMILES	IC50 (IDH1 mutant (R132H)) [µM]	IC50 (IDH1-WT) [µM]	IC50 (IDH2 mutant (R140Q)) [µM]
CC[C@H]1COC(=O)N1c1nc(N[C@@H](C)c2cn(-c3ccc(C(F)(F)F)cc3)cn2)nc(OC)n1 [Compound 1.41, (S)-4-ethyl-3-(4-methoxy-6-((S)-1-(1-(4-(trifluoromethyl)phenyl)-1H-imidazol-4-yl)ethylamino)-1,3,5-triazin-2-yl)oxazolidin-2-one]	0.707	> 50	> 50
CC[C@H]1COC(=O)N1c1nc(C)nc(N[C@H](C)c2cc3cc(Cl)c(OC(C)C)cc3[nH]c2=O)n1 [Compound 1.105, (S)-3-(4-((R)-1-(6-chloro-7-isopropoxy-2-oxo-1,2-dihydroquinolin-3-yl)ethylamino)-6-methyl-1,3,5-triazin-2-yl)-4-ethyloxazolidin-2-one]	0.66	> 50	> 50
CC[C@H]1COC(=O)N1c1nc(C)nc(N[C@@H](C)c2ccc3ccn(-c4ccccc4)c3c2)n1 [Compound 1.85, (S)-4-ethyl-3-(4-methyl-6-((S)-1-(1-phenyl-1H-indol-6-yl)ethylamino)-1,3,5-triazin-2-yl)oxazolidin-2-one]	0.914	> 50	> 50
CC[C@@H](Nc1ncnc(N2C(=O)OC[C@@H]2C(C)C)n1)c1ccc(Oc2ccccc2)cc1 [Compound 1.34, (S)-4-isopropyl-3-(4-((R)-1-(4-phenoxyphenyl)propylamino)-1,3,5-triazin-2-yl)oxazolidin-2-one]	> 30	> 30	> 50
Cc1cc(-c2cnc([C@H](C)Nc3ncnc(N4C(=O)OC[C@@H]4C(C)C)n3)nc2)ccc1F [Compound 1.1, (S)-3-(4-((S)-1-(5-(4-fluoro-3-methylphenyl)pyrimidin-2-yl)ethylamino)-1,3,5-triazin-2-yl)-4-isopropyloxazolidin-2-one]	2.77	> 50	> 50
CC(C)[C@H]1COC(=O)N1c1ncnc(N[C@@H](C)c2cn(-c3ccc(Cl)cc3)cn2)n1 [Compound 1.13, (S)-3-(4-((S)-1-(1-(4-chlorophenyl)-1H-imidazol-4-yl)ethylamino)-1,3,5-triazin-2-yl)-4-isopropyloxazolidin-2-one]	0.77	> 30	> 50
Cc1cc(-c2ccc([C@H](C)Nc3ncnc(N4C(=O)OC[C@@H]4C(C)C)n3)nc2)ccc1F [Compound 1.3, (S)-3-(4-((S)-1-(5-(4-fluoro-3-methylphenyl)pyridin-2-yl)ethylamino)-1,3,5-triazin-2-yl)-4-isopropyloxazolidin-2-one]	0.83	> 30	> 30
CC(C)[C@H]1COC(=O)N1c1ncnc(N[C@@H](C)c2ccc(-c3ccc(C(F)(F)F)cc3)cn2)n1 [Compound 1.4, (S)-4-isopropyl-3-(4-((S)-1-(5-(4-(trifluoromethyl)phenyl)pyridin-2-yl)ethylamino)-1,3,5-triazin-2-yl)oxazolidin-2-one]	3.3	> 30	> 50
CC(C)[C@H]1COC(=O)N1c1ncnc(N[C@@H](C)c2ccc(-c3ccc(Cl)cc3)cn2)n1 [Compound 1.10, (S)-3-(4-((S)-1-(5-(4-chlorophenyl)pyridin-2-yl)ethylamino)-1,3,5-triazin-2-yl)-4-isopropyloxazolidin-2-one]	2.76	> 30	> 50
C[C@H](Nc1ncnc(N2C(=O)OC[C@@H]2c2ccccc2)n1)c1cn(-c2ccc(C(F)(F)F)cc2)cn1 [Compound 1.26, (S)-4-phenyl-3-(4-((S)-1-(1-(4-(trifluoromethyl)phenyl)-1H-imidazol-4-yl)ethylamino)-1,3,5-triazin-2-yl)oxazolidin-2-one]	3.04	> 50	> 50

Now those with a lower IC50 (IDH1 mutant (R132H)), led by results:

IC50 (IDH1 mutant (R132H)) [µM]	IC50 (IDH1-WT) [µM]	IC50 (IDH2 mutant (R140Q)) [µM]	SMILES
0.586	> 50	> 50	CC[C@H]1COC(=O)N1c1nc(C)nc(N[C@@H](C)c2ccc(Oc3cccnc3C(F)(F)F)cc2)n1 [Compound 1.81, (S)-4-ethyl-3-(4-methyl-6-((S)-1-(4-(2-(trifluoromethyl)pyridin-3-yloxy)phenyl)ethylamino)-1,3,5-triazin-2-yl)oxazolidin-2-one]
0.44	> 50	> 50	CC[C@H]1COC(=O)N1c1nc(C)nc(N[C@@H](C)c2ccc(Oc3ccc(F)cc3Br)cc2)n1 [Compound 1.78, (S)-3-(4-((S)-1-(4-(2-bromo-4-fluorophenoxy)phenyl)ethylamino)-6-methyl-1,3,5-triazin-2-yl)-4-ethyloxazolidin-2-one]
0.615	> 50	> 50	CC[C@H]1COC(=O)N1c1nc(C)nc(N[C@@H](C)c2ccc(Oc3ccccc3)c(F)c2)n1 [Compound 1.84, (S)-4-ethyl-3-(4-((S)-1-(3-fluoro-4-phenoxyphenyl)ethylamino)-6-methyl-1,3,5-triazin-2-yl)oxazolidin-2-one]
0.575	> 30	> 50	CC(C)[C@H]1COC(=O)N1c1ncnc(N[C@@H](C)c2cn(-c3ccc(C(F)(F)F)cc3)cn2)n1 [Compound 1.5, (S)-4-isopropyl-3-(4-((S)-1-(1-(4-(trifluoromethyl)phenyl)-1H-imidazol-4-yl)ethylamino)-1,3,5-triazin-2-yl)oxazolidin-2-one]
0.298	> 50	> 50	CC[C@H]1COC(=O)N1c1nc(C)nc(N[C@@H](C)c2cn(-c3ccc(C(F)(F)F)cc3)cn2)n1 [Compound 1.40, (S)-4-ethyl-3-(4-methyl-6-((S)-1-(1-(4-(trifluoromethyl)phenyl)-1H-imidazol-4-yl)ethylamino)-1,3,5-triazin-2-yl)oxazolidin-2-one]
0.492	> 50	> 50	CC[C@H]1COC(=O)N1c1ncnc(N[C@@H](C)c2ccc(Oc3ccccc3)cc2)n1 [Compound 1.29, (S)-4-ethyl-3-(4-((S)-1-(4-phenoxyphenyl)ethylamino)-1,3,5-triazin-2-yl)oxazolidin-2-one]
0.486	> 30	> 50	COc1nc(N[C@@H](C)c2ccc(Oc3ccccc3)cc2)nc(N2C(=O)OC[C@@H]2C(C)C)n1 [Compound 1.31, (S)-4-isopropyl-3-(4-methoxy-6-((S)-1-(4-phenoxyphenyl)ethylamino)-1,3,5-triazin-2-yl)oxazolidin-2-one]
0.52	> 50	> 50	CC[C@H]1COC(=O)N1c1nc(C)nc(N[C@@H](C)c2ccc(Oc3ccc4ccccc4c3)cc2)n1 [Compound 1.94, (S)-4-ethyl-3-(4-methyl-6-((S)-1-(4-(naphthalen-2-yloxy)phenyl)ethylamino)-1,3,5-triazin-2-yl)oxazolidin-2-one]
